The values below come from US20040110768A1, “Bombesin receptor antagonists” (priority 2000, published 2004).

Data set [1] concerns Ovariectomised adult female Sprague Dawley rats. The experiment in a line: Female rat sexual proceptivity test. It is filed as in vivo. The conditions noted are these: for difference in the percentage of time spent investigating the male stimuli minus female stimuli / MED, difference in percentage of time spent investigating male minus female stimuli: 1 h before test. The method, then: Ovariectomised adult female Sprague Dawley rats (180-200 g) were housed in groups of 6 in a reversed lighting system of 12 h light:dark (lights off 7.00-19.00 h). Two weeks after ovariectomy they were used for sexual activity tests. Animals were Adapted to the apparatus (in the absence of stimuli animals) for 10 min on 2 Consecutive days prior to testing. The experiments started at least 5 h into the dark period. Tests were carried out in a circular arena of 90 cm diameter, surrounded by a 30 cm high wall. Two small cages with wire-mesh front (15×15 cm) are fixed into the wall such that the front of the cage is “flush” with the wall and the 2 cages are opposite each other. They contain two stimuli animals: an intact sexually experienced male and a receptive female (ovariectomised, primed with 5 μg oestradiol benzoate dissolved in corn oil and injected subcutaneously 48 h before the test and with 0.5 mg of progesterone 4 h before the test). Sexually naïve test and control animals were used. Forty eight hours before the tests, both the test and control animals were primed with 5 μg oestradiol benzoate. Test animals were treated with the above compound (1)(30-100 mg/kg) which was dissolved in PEG 200 vehicle and administered orally in a 1 ml/kg volume 1 h before each test. For animals used as positive controls, progesterone (0.5 mg/0.1 ml) was dissolved in corn oil and administered subcutaneously (s.c.), 4 h before the test. Test and control animals were introduced one at a time for 10-minute periods into the arena. During the 10-min test, the time that the test or positive control animal spent investigating each stimulus animal was noted. The arena was thoroughly cleaned between animals. The position of the male/female stimuli boxes was randomised between animals, in order to avoid place preference. The difference in the percentage of time spent investigating male minus female was calculated, out of the total time spent investigating stimuli animals.
Example 21 was repeated except that compound (1) (3-30 mg/kg) was dissolved in 0.5% methyl cellulose and was administered p.o. in a dosing volume of 3 ml/kg 1 h before tests. Progesterone (0.5 mg/0.1 ml) was dissolved in corn oil and administered s.c., 4 h before test, as a positive control.

For data set [2] the test system is unchanged. The experiment in a line: Female rat sexual receptivity test (lordosis quotient). It is filed as in vivo. The method, then: Ovariectomised adult female Sprague Dawley rats (180-200 g) were housed in groups of 6 in a reversed lighting system of 12 h light:dark (lights off 7.00-19.00 h). Two weeks after ovariectomy they were used for sexual activity tests. The experiments started at least 5 h into the dark period. Compound (1) was dissolved in PEG 200 vehicle and administered orally. Quinelorane dihydrochloride (LY 163,502, 6.25 μg/kg) was dissolved in water and administered s.c., as a positive control. Both compounds were administered in a 1-ml/kg volume. Forty eight hours before tests, the animals were primed with 5 μg oestradiol benzoate dissolved in corn oil and injected s.c. The females were placed with a series of vigorous male rats and subjected to 10 mounts. The lordotic response of the animal was recorded and expressed as a percentage of the mounts (i.e. lordosis quotient, LQ). […] Animals showing higher LQ were not included in the study. Each rat was tested prior to administration of the compound (1) and then tested similarly at 1 h and at 90 min post-injection of compound (1) or quinelorane respectively.

Counter-ions that a name gives are not always drawn.

The term melting point denotes the temperature of the solid-liquid transition. Consider `C[C@@](Cc1c[nH]c2ccccc12)(NCc1ccc([N+](=O)[O-])cc1)C(=O)NCC1(c2ccccn2)CCCCC1` [Example 19, (S)-3-(1H-Indol-3-yl)-2-methyl-2-(4-nitro-benzylamino)-N-(1-pyridin-2-yl-cyclohexylmethyl)-propionamide], for which the melting point lay within 58 to 60 °C.

`COc1ccc(C2(CNC(=O)[C@](C)(Cc3c[nH]c4ccccc34)Nc3nc(-c4ccc([N+](=O)[O-])cc4)cs3)CCCCC2)nc1` [Example 8, (S)-3-(1H-Indol-3-yl)-N-[1-(5-methoxy-pyridin-2-yl)-cyclohexylmethyl]-2-methyl-2-[4-(4-nitro-phenyl)-thiazol-2-ylamino]-propionamide] came in with a melting point of 110 to 114 °C. On to `CC(=O)[C@H]1CC[C@H]2[C@@H]3CCC4=CC(=O)CC[C@]4(C)[C@H]3CC[C@]12C` [progesterone, reference compound], for which the “effect on proceptivity (positive control)” value in data set [1] (0.5 mg/0.1 ml in corn oil s.c., 4 h before test) was “maximal”. Molecule `C[C@@](Cc1c[nH]c2ccccc12)(Nc1cncnc1)C(=O)NCC1(c2ccccn2)CCCCC1` [Example 12, (S)-3-(1H-Indol-3-yl)-2-methyl-N-(1-pyridin-2-yl-cyclohexylmethyl)-2-(pyrimidin-5-ylamino)-propionamide] had a melting point of 95 to 98 °C. The molecule `COc1ccc(C2(CNC(=O)[C@](C)(Cc3c[nH]c4ccccc34)Nc3nc(-c4ccccc4)co3)CCCCC2)nc1` [Example 6, (S)-3-(1H-Indol-3-yl)-N-[1-(5-methoxy-pyridin-2-yl)-cyclohexylmethyl]-2-methyl-2-(4-phenyl-oxazol-2-ylamino)-propionamide] registered a melting point of 85 to 90 °C. For the molecule `CCCN1CCC[C@@H]2Cc3nc(N)ncc3C[C@H]21` [quinelorane, Quinelorane dihydrochloride, reference compound], the “lordosis quotient (LQ) versus before administration” value in data set [2] (6.25 μg/kg s.c. in water, 90 min after administration) is “significantly (P<0.01) increased”. In turn, `Cc1cccc(N[C@@](C)(Cc2c[nH]c3ccccc23)C(=O)NCC2(c3ccccn3)CCCCC2)c1` [Example 14, (S)-3-(1H-Indol-3-yl)-2-methyl-N-(1-pyridin-2-yl-cyclohexylmethyl)-2-m-tolylamino-propionamide] gave a melting point of 70 to 75 °C. On the same count and under the same terms, to `COCC1(CNC(=O)[C@](C)(Cc2c[nH]c3ccccc23)Nc2nc(-c3ccc([N+](=O)[O-])cc3)co2)CCCCC1` [Example 2, (S)-3-(1H-Indol-3-yl)-N-(1-methoxymethyl-cyclohexylmethyl)-2-methyl-2-[4-(4-nitro-phenyl)-oxazol-2-ylamino]-propionamide] belongs 189 to 192 °C. With `C[C@@](Cc1c[nH]c2ccccc12)(Nc1cncc2ccccc12)C(=O)NCC1(c2ccccn2)CCCCC1` [Example 11, (S)-3-(1H-Indol-3-yl)-2-(isoquinolin-4-ylamino)-2-methyl-N-(1-pyridin-2-yl-cyclohexylmethyl)-propionamide], the melting point lay within 98 to 101 °C. Regarding `C[C@@](Cc1c[nH]c2ccccc12)(Nc1ccncc1)C(=O)NCC1(c2ccccn2)CCCCC1` [Example 10, (S)-3-(1H-Indol-3-yl)-2-methyl-2-(pyridin-4-ylamino)-N-(1-pyridin-2-yl-cyclohexylmethyl)-propionamide], the melting point lay in the range of 180 to 195 °C. Take `COc1ccc(C2(CNC(=O)[C@](C)(Cc3c[nH]c4ccccc34)Nc3nc(-c4ccc(C#N)cc4)co3)CCCCC2)nc1` [Example 5, (S)-2-[4-(4-Cyano-phenyl)-oxazol-2-ylamino]-3-(1H-indol-3-yl)-N-[1-(5-methoxy-pyridin-2-yl)-cyclohexylmethyl]-2-methyl-propionamide]: the melting point lay within 105 to 108 °C. Still for that read-out and setting: to `CCc1coc(N[C@@](C)(Cc2c[nH]c3ccccc23)C(=O)NCC2(c3ccc(OC)cn3)CCCCC2)n1` [Example 7, (S)-2-(4-Ethyl-oxazol-2-ylamino)-3-(1H-indol-3-yl)-N-[1-(5-methoxy-pyridin-2-yl)-cyclohexylmethyl]-2-methyl-propionamide] belongs 60 to 65 °C.

For `C[C@@](Cc1c[nH]c2ccccc12)(Nc1nc(-c2ccc([N+](=O)[O-])cc2)co1)C(=O)NCC(=O)c1ccccc1` [Example 3, (S)-3-(1H-Indol-3-yl)-2-methyl-2-[4-(4-nitro-phenyl)-oxazol-2-ylamino]-N-(2-oxo-2-phenyl-ethyl)-propionamide], the melting point lay within 80 to 90 °C. With `COc1ccc(C2(CNC(=O)[C@](C)(Cc3c[nH]c4ccccc34)Nc3nc(-c4ccc([N+](=O)[O-])cc4)co3)CCCCC2)nc1` [Example 1, (S)-3-(1H-Indol-3-yl)-N-[1-(5-methoxy-pyridin-2-yl)-cyclohexylmethyl]-2-methyl-2-[4-(4-nitro-phenyl)-oxazol-2-ylamino]-propionamide], the melting point lay in the range of 100 to 105 °C. In addition, the “difference in the percentage of time spent investigating the male stimuli minus female stimuli” value in data set [1] (0.5% methyl cellulose, p.o., 3-30 mg/kg) is listed as “increased”. Further, the “MED, difference in percentage of time spent investigating male minus female stimuli” value in data set [1] (0.5% methyl cellulose, p.o.) turned out to be 10 mg/kg. Moreover, the “difference in the percentage of time spent investigating the male stimuli minus female stimuli” value in data set [1] (PEG 200 vehicle, oral, 30-100 mg/kg) is “increased”. In data set [1] (PEG 200 vehicle, oral), the “MED, difference in percentage of time spent investigating male minus female stimuli” value came to 100 mg/kg. The “increase in potency in methyl cellulose compared to PEG 200 vehicle” value in data set [1] (oral, MED 10 vs 100 mg/kg) came out at 10 fold. Further, in data set [2] (PEG 200, single oral administration, 10-100 mg/kg, 1 h after administration), the “lordosis quotient (LQ) versus before administration” value is listed as “increased”.

In the case of `C[C@@](Cc1c[nH]c2ccccc12)(Nc1nc2ccccc2o1)C(=O)NCC1(c2ccccn2)CCCCC1` [Example 9, (S)-2-(Benzooxazol-2-ylamino)-3-(1H-indol-3-yl)-2-m thyl-N-(1-pyridin-2-yl-cyclohxylmethyl)-propionamide], the melting point is 198 to 200 °C.
